Test [1] concerns thrombocyte aggregation. The test can be described thus: Arachidonic acid-induced thrombocyte aggregation in thrombocyte-rich plasma. The class given is cell-based, humans. The following applies: Homo sapiens; 0.8 mM arachidonic acid; concentration giving total restraint of aggregation. The text has this: Since with the new medicines the restraints of lipoxygenase has been identified as a molecular type of attack, also their influence on the thrombocyte-aggregation has been tested. The essential role of the lipoxygenase pathway for irreversibility of the thrombocyte aggregation is now known. (C. E. Dutilh et al. Prostaglandins and Medicine 6, 111 (1981)). The key role is attributed to the irreversibility of the thrombocyte aggregation in the pathogenesis of thrombotic illnesses. […] In the experiments, the thrombocyte aggregation was triggered either by means of arachidonic acid or by means of platelet activation factor (PAF-Acether).
The testing of the compounds for antithrombotic and thrombolytic activity follows in authentic cell systems of humans in vitro. Thrombocyte-rich plasma from the blood of healthy donors is obtained by centrifugation at 1,000×g. The measurement of the thrombocyte aggregation follows by means of an aggregometer based upon diffuse light scattering or light absorption of the produced cell aggregate. The thrombocyte-rich plasma is pre-incubated at 37° C. for 3 minutes with the active substance or substances; thereafter the thrombocyte aggregation is triggered through the addition of either 0.8 mM arachidonic acid or 1 μM platelet activation factor (PAF-acether). The preparations are then stirred with a velocity of 800 rpm. Indeed according to the employed active substance concentration there occurs either a strong delay or a complete inhibition of the thrombocyte aggregation.

Test [2] concerns guinea pig lung strips. The test can be described thus: Activity on the basal tones of guinea pig lung strips. The following applies: Cavia porcellus, basal tone, cumulative dose-activity curve. The text has this: (§1) The testing of the compounds for antiasthmatic activity follows on isolated lung strips and isolated tracheal rings from guinea pigs according to measuring methods known from the literature (supra) in modified form. The measurements follow in thermostatically controlled organ bath, isotonically using a contraction measuring arrangement with lift receiver, measuring coil, measuring amplifier (inductive measurement with the aid of a high frequency resonant circuit). The gasification follows with air. The suspension solution has the following composition: 39.46 g NaCl, 2.2 g KCl, 6.07 g Tris, 1.0 g CaCl2, 9.9 g glucose, 1.0 ml saturated MgCl2 -solution, 43 ml 1N HCl; pH 7.4.
(c) Activity on the basal tones of guinea pig lung strips.
Increasing concentrations of the active substance are added to the suspension medium. There occurs a dilatation, which is cumulatively measured. From the Dose-Activity-curves are provided the following parameters: […]

For test [3], the system named is guinea pig trachia. The test is described as follows: Carbachol-induced spasm of guinea pig trachea. The following applies: Cavia porcellus; spasm triggered by 3.9 μM carbachol; read-out: active substance concentration at which strong to very strong dilatation was clearly determinable.
Description: as §1
(b) Activity on the carbachol-induced spasm of guinea pig trachia
The spasms are triggered by 3.9 μM carbachol.

In test [4] the test system is carrageenin edema of rat paws. The test is described as follows: Inhibition of carrageenin edema of rat paws. Format: in vivo. The note with it: 200 mg/kg perorally, rats. Here is the method: The inflammation-inhibiting activity of the compounds of Formula I is expressed, among others, by an inhibition of carrageenin edema in rat paws (see Example 9).
The carrageenin edema is employed in international literature as a model system for inflammation-triggering (prophlogistic) procedures, and offers the possibility of in vivo testing of compounds for inflammation-inhibiting (antiphlogistic) activity.
2(2'-naphthoxy)-acethydroxamic acid is supplied to 10 rats perorally in a dose of 200 mg/kg body weight with simultaneous delivery of 0.1 ml 1% carrageenin solution per animal. The extent of the paw edema is measured hourly after the application, and compared with the control group.
Background: Carrageenan injected into the paw causes an acute inflammation.

Test [5] has as its system histamine-induced bronchoconstriction in guinea pigs. The test is described as follows: Inhibition of histamine-induced bronchoconstriction in guinea pigs in vivo. The note with it: individual animals; second histamine injection; listed as SHAM.
Test [6] addresses T1, arachidonate-lipoxygenase of human thrombocyte (Homo sapiens, UniProt P18054).
T1 construct: microsome-free lysate of human thrombocyte concentrates; from tissue; host or cells: human thrombocyte (platelet) concentrates, microsome-free lysate
The test is described as follows: Arachidonate-lipoxygenase activity of microsome-free lysate of human thrombocyte concentrates. The class given is biochemical. The following applies: 0.25 mM. Here is the method: The inhibition of thrombocyte aggregation is likewise ascribed to the inhibition of lipoxygenase in the cells. It has thus been shown that the arachidonate-lipoxygenase activity of a microsome-free lysate of human thrombocyte concentrates is inhibited to the extent of 100% by means of 0.25 mM salicylhydroxamic acid. Moreover, it has been shown that also a series of further lipoxygenases are inhibited by means of the here described hydroxamic acids. The lipoxygenase from soybeans reacts the most insensitive, i.e. it is inhibited by means of 1 mM salicylhydroxamic acid at pH 7.4 to an extent of 60% and by means of 0.4 mM 2-hydroxy-1-napthylhydroxamic acid to an extent of 54%. In contrast, for the lipoxygenase from peas which come closer in their characteristics to human lipoxygenase, the following I50 -values are provided: salicyl hydroxamic acid, 5 μM, 2-hydroxy-1-napthylhydroxamic acid, 2 μM, 2(2'-napthoxy)-acethydroxamic acid, 2 μM. Moreover it has been shown that the formation lipoxygenase products of arachidonic acid in in vitro cultivated aorta endothelial cells of calves is hindered through 0.1 mM 2-hydroxy-1-napthylhydroxamic acids.

SMILES strings stand for the structures. “And” between values parts separate entries of the source, which are not always exact repeats. Equal entries are not always repeated.

T1 sequence (P18054 whole entry): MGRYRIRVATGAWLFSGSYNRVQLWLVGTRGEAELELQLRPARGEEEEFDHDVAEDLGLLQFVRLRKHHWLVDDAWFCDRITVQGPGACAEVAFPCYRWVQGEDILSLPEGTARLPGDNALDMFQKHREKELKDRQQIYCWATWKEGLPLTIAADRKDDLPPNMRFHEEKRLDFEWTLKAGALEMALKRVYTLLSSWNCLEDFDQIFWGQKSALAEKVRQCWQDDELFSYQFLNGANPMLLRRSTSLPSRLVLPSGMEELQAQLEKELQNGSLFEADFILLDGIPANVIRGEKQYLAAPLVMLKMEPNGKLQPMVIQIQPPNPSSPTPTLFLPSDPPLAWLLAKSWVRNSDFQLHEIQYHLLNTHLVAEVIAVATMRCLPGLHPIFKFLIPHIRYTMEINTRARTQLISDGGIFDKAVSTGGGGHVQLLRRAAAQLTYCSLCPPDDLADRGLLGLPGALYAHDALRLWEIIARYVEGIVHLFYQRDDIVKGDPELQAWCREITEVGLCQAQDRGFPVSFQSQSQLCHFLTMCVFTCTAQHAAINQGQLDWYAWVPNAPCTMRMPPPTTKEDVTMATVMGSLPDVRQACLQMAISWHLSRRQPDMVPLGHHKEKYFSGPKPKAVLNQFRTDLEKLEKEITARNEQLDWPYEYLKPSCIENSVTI

Take `O=C(COc1ccc2ccccc2c1)NO` [2(2'-naphthoxy)-acethydroxamic acid]: in test [1], the IC100 stood at 60 µM. Further, the EC50 in test [2] (read-out: ED50 (dilatation)) was 14 µM. For the same compound, the EC84 in test [2] (read-out: ED84 (dilatation)) turned out to be 27 µM. Further, the minimal effective concentration in test [3] turned out to be 50 µM. Besides, the “Restraint (%) of carrageenin edema” value turned out to be 27.3% in test [4] (1 h); 27.3% in test [4] (2 h); 20.2% in test [4] (3 h); 35.3% in test [4] (4 h); 21.4% in test [4] (5 h).

As to `O=C(NO)c1ccccc1O` [salicylhydroxamic acid], the “volume change, after 5 μg/kg Histamine” value in test [5] is -49% and -95.7% and -62%. Also, the inhibition at 250 µM in test [6] was determined as 100%.

Usually inhibition stands for the share of the control response that was lost under treatment.

Values taken from patent publication US4670469A, “Hydroxamic acid and pharmaceutical preparations containing the same” (VEB Arzneimittelwerk Dresden, priority 1983, dated 1987).
